Target: T1, human GPR119 (hGPR119) (Homo sapiens, UniProt Q8TDV5)
T1 construct: expressed in transfected cells
T1 sequence (Q8TDV5 1-335): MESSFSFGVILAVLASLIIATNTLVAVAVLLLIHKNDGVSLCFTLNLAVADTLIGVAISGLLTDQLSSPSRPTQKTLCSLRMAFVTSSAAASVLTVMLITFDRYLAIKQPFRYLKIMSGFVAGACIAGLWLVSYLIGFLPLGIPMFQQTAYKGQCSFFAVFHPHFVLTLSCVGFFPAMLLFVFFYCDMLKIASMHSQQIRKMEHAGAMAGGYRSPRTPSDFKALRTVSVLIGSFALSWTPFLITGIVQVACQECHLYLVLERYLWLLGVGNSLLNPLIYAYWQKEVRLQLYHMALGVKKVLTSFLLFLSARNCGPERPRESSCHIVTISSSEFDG
Assay: cAMP accumulation assay (cAMP Gs dynamic HTRF kit)
Type: cell-based
Settings: CHO-K1 cells stably expressing hGPR119, 4-parameter fit; for Emax: 1 h, % activity normalized to Max/Min controls; for EC50: cAMP accumulation
How it was run: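 CHO-K1 cells stably expressing hGPR119, used as assay-ready frozen stocks at ~10,000 cells/well, exposed to compound dose-response in stimulation buffer with Tween 80 for 60 min at 37° C. cAMP read by HTRF (665/620 nm ratio), normalised to Max/Min controls; EC50 and Max activity from 4-parameter fit.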

SMILES	Emax [%]	EC50 [nM]
O=C(Cc1ccc(OCCCC2CCN(c3ncc(Cl)cn3)CC2)cc1F)NCCCCCC(=O)N1C[C@H](O)[C@@H](O)C1 [Example 25, 2-[4-[3-[1-(5-chloropyrimidin-2-yl)-4-piperidyl]propoxy]-2-fluoro-phenyl]-N-[6-[(3S,4S)-3,4-dihydroxypyrrolidin-1-yl]-6-oxo-hexyl]acetamide]	≥ 130	100 to 1000
O=C(Cc1ccc(OCCCC2CCN(c3ncc(Cl)cn3)CC2)cc1F)NCCCCCC(=O)NC(CO)CO [Example 17, 6-[[2-[4-[3-[1-(5-chloropyrimidin-2-yl)-4-piperidyl]propoxy]-2-fluoro-phenyl]acetyl]amino]-N-[2-hydroxy-1-(hydroxymethyl)ethyl]hexanamide]	≥ 130	100 to 1000
O=C(Cc1ccc(OCCCC2CCN(c3ncc(Cl)cn3)CC2)cc1F)N1CC(CCNCC(O)(CO)CO)C1 [Example 58, 2-(4-(3-(1-(5-chloropyrimidin-2-yl)piperidin-4-yl)propoxy)-2-fluorophenyl)-1-(3-(2-((2,3-dihydroxy-2-(hydroxymethyl)propyl)amino)ethyl)azetidin-1-yl)ethan-1-one]	≥ 130	100 to 1000
O=C(Cc1ccc(OCCC2CC23CCN(c2ncc(Cl)cn2)CC3)cc1F)N1CC(CNC[C@H](O)[C@@H](O)[C@H](O)[C@H](O)CO)C1 (stereo partly drawn) [Example 110, 2-[4-[2-[6-(5-chloropyrimidin-2-yl)-6-azaspiro[2.5]octan-2-yl]ethoxy]-2-fluoro-phenyl]-1-[3-[[[(2S,3R,4R,5R)-2,3,4,5,6-pentahydroxyhexyl]amino]methyl]azetidin-1-yl]ethanone]	100 to 130	100 to 1000
O=C(Cc1c(F)cc(OCCCC2CCN(c3ncc(Cl)cn3)CC2)cc1F)N1CC(CNC[C@H](O)[C@@H](O)[C@H](O)[C@H](O)CO)C1 [Example 53, 2-[4-[3-[1-(5-chloropyrimidin-2-yl)-4-piperidyl]propoxy]-2,6-difluoro-phenyl]-1-[3-[[[(2S,3R,4R,5R)-2,3,4,5,6-pentahydroxyhexyl]amino]methyl]azetidin-1-yl]ethanone]	≥ 130	≤ 100
O=C(NCCNCCC1CN(C(=O)Cc2ccc(OCCCC3CCN(c4ncc(Cl)cn4)CC3)cc2F)C1)NC(CO)(CO)CO [Example 60, 1-(2-((2-(1-(2-(4-(3-(1-(5-chloropyrimidin-2-yl)piperidin-4-yl)propoxy)-2-fluorophenyl)acetyl)azetidin-3-yl)ethyl)amino)ethyl)-3-(1,3-dihydroxy-2-(hydroxymethyl)propan-2-yl)urea]	≥ 130	100 to 1000
CC[N+](CC)(CC)CCCCCNC(=O)Cc1ccc(OCCCC2CCN(c3ncc(Cl)cn3)CC2)cc1F [Example 2, 5-[[2-[4-[3-[1-(5-chloropyrimidin-2-yl)-4-piperidyl]propoxy]-2-fluoro-phenyl]acetyl]amino]pentyl-triethyl-ammonium]	≥ 130	100 to 1000
CCc1cnc(N2CCC(CCCOc3ccc(CC(=O)NCCC[N+](C)(C)C)c(F)c3)CC2)nc1 [Example 15, 3-[[2-[4-[3-[1-(5-ethylpyrimidin-2-yl)-4-piperidyl]propoxy]-2-fluoro-phenyl]acetyl]amino]propyl-trimethyl-ammonium]	100 to 130	100 to 1000
O=C(Cc1ccc(OCCCC2CCC23CCN(c2ncc(Cl)cn2)CC3)cc1F)N1CC(CNC[C@H](O)[C@@H](O)[C@H](O)[C@H](O)CO)C1 (stereo partly drawn) [Example 144, 2-[4-[3-[7-(5-chloropyrimidin-2-yl)-7-azaspiro[3.5]nonan-3-yl]propoxy]-2-fluoro-phenyl]-1-[3-[[[(2S,3R,4R,5R)-2,3,4,5,6-pentahydroxyhexyl]amino]methyl]azetidin-1-yl]ethanone]	100 to 130	1000 to 10000
O=C(CC1CN(C(=O)Cc2ccc(OCCCC3CCN(c4ncc(Cl)cn4)CC3)cc2F)C1)NCC(O)(CO)CO [Example 33, 2-[1-[2-[4-[3-[1-(5-chloropyrimidin-2-yl)-4-piperidyl]propoxy]-2-fluoro-phenyl]acetyl]azetidin-3-yl]-N-[2,3-dihydroxy-2-(hydroxymethyl)propyl]acetamide]	≥ 130	100 to 1000
O=C(Cc1ccc(OCCCC2CCN(c3ncc(Cl)cn3)CC2)cc1F)N1CC[C@H](CNC[C@H](O)[C@H](O)[C@H](O)CO)C1 [Example 168, 2-[4-[3-[1-(5-chloropyrimidin-2-yl)-4-piperidyl]propoxy]-2-fluoro-phenyl]-1-[(3R)-3-[[[(2S,3S,4R)-2,3,4,5-tetrahydroxypentyl]amino]methyl]pyrrolidin-1-yl]ethanone]	100 to 130	≤ 100
O=C(Cc1c(F)cc(OCCCC2CC3(CCN(c4ncc(Cl)cn4)CC3)C2)cc1F)N1CC(CNC[C@H](O)[C@@H](O)[C@H](O)[C@H](O)CO)C1 [Example 116, 2-[4-[3-[7-(5-chloropyrimidin-2-yl)-7-azaspiro[3.5]nonan-2-yl]propoxy]-2,6-difluoro-phenyl]-1-[3-[[[(2S,3R,4R,5R)-2,3,4,5,6-pentahydroxyhexyl]amino]methyl]azetidin-1-yl]ethanone]	≥ 130	≤ 100
CCOc1cnc(N2CCC(CCCOc3ccc(CC(=O)N4CC(CC(=O)NCC(O)(CO)CO)C4)c(F)c3)CC2)nc1 [Example 108, N-[2,3-dihydroxy-2-(hydroxymethyl)propyl]-2-[1-[2-[4-[3-[1-(5-ethoxypyrimidin-2-yl)-4-piperidyl]propoxy]-2-fluoro-phenyl]acetyl]azetidin-3-yl]acetamide]	100 to 130	≤ 100
O=C(OC[C@@H]1C[C@@H]1C1CCN(c2ncc(Cl)cn2)CC1)c1ccc(CC(=O)N2CC(CNC[C@H](O)[C@@H](O)[C@H](O)[C@H](O)CO)C2)c(F)c1 (racemic) [Example 95, (1R,2R)-2-[1-(5-chloropyrimidin-2-yl)-4-piperidyl]cyclopropyl]methyl 3-fluoro-4-[2-oxo-2-[3-[[[rac-(2S,3R,4R,5R)-2,3,4,5,6-pentahydroxyhexyl]amino]methyl]azetidin-1-yl]ethyl]benzoate]	100 to 130	100 to 1000
O=C(Cc1ccc(OCCCC2CCN(c3ncc(Cl)cn3)CC2)cc1F)N1CC(CN2C[C@H](O)[C@@H](O)C2)C1 (stereo in doubt) [Example 46, 2-[4-[3-[1-(5-chloropyrimidin-2-yl)-4-piperidyl]propoxy]-2-fluoro-phenyl]-1-[3-[[rac-(3S,4S)-3,4-dihydroxypyrrolidin-1-yl]methyl]azetidin-1-yl]ethanone]	100 to 130	≤ 100
CCc1cnc(N2CCC(CCCOc3ccc(CC(=O)N4CC(CNC(CO)(CO)CO)C4)c(F)c3)CC2)nc1 [Example 64, 1-(3-(((1,3-dihydroxy-2-(hydroxymethyl)propan-2-yl)amino)methyl)azetidin-1-yl)-2-(4-(3-(1-(5-ethylpyrimidin-2-yl)piperidin-4-yl)propoxy)-2-fluorophenyl)ethan-1-one]	≥ 130	≤ 100
COCC1(C(=O)NC[C@H](O)[C@@H](O)[C@H](O)[C@H](O)CO)CCN(C(=O)Cc2ccc(OCCCC3CCN(c4ncc(Cl)cn4)CC3)cc2F)C1 (stereo partly drawn) [Example 136, 1-[2-[4-[3-[1-(5-chloropyrimidin-2-yl)-4-piperidyl]propoxy]-2-fluoro-phenyl]acetyl]-3-(methoxymethyl)-N-[(2S,3R,4R,5R)-2,3,4,5,6-pentahydroxyhexyl]pyrrolidine-3-carboxamide]	100 to 130	≤ 100
COCc1cnc(N2CCC(CCCOc3ccc(CC(=O)N4CC(C(=O)NC[C@H](O)[C@@H](O)[C@H](O)[C@H](O)CO)C4)c(F)c3)CC2)nc1 (racemic) [Example 39, 1-[2-[2-fluoro-4-[3-[1-[5-(methoxymethyl)pyrimidin-2-yl]-4-piperidyl]propoxy]phenyl]acetyl]-N-[rac-(2S,3R,4R,5R)-2,3,4,5,6-pentahydroxyhexyl]azetidine-3-carboxamide]	100 to 130	100 to 1000
O=C(Cc1c(F)cc(OCCCC2CCN(c3ncc(Cl)cn3)CC2)cc1F)NC(CO)(CO)CO [Example 6, 2-[4-[3-[1-(5-chloropyrimidin-2-yl)-4-piperidyl]propoxy]-2,6-difluoro-phenyl]-N-[2-hydroxy-1,1-bis(hydroxymethyl)ethyl]acetamide]	100 to 130	100 to 1000
O=C(Cc1ccc(OCCC[C@@H]2[C@H]3CN(c4ncc(Cl)cn4)C[C@@H]23)cc1F)N1CC(CNC[C@H](O)[C@@H](O)[C@H](O)[C@H](O)CO)C1 [Example 113, 2-[4-[3-[(1R,5S)-3-(5-chloropyrimidin-2-yl)-3-azabicyclo[3.1.0]hexan-6-yl]propoxy]-2-fluoro-phenyl]-1-[3-[[[(2S,3R,4R,5R)-2,3,4,5,6-pentahydroxyhexyl]amino]methyl]azetidin-1-yl]ethanone]	100 to 130	100 to 1000
O=C(CC1(O)CN(C(=O)Cc2ccc(OCCCC3CCN(c4ncc(Cl)cn4)CC3)cc2F)C1)NCC(CO)(CO)CO [Example 184, 2-[1-[2-[4-[3-[1-(5-chloropyrimidin-2-yl)-4-piperidyl]propoxy]-2-fluoro-phenyl]acetyl]-3-hydroxy-azetidin-3-yl]-N-[3-hydroxy-2,2-bis(hydroxymethyl)propyl]acetamide]	100 to 130	≤ 100
NS(=O)(=O)CCCNC(=O)Cc1ccc(OCCCC2CCN(c3ncc(Cl)cn3)CC2)cc1F [Example 13, 2-[4-[3-[1-(5-chloropyrimidin-2-yl)-4-piperidyl]propoxy]-2-fluoro-phenyl]-N-(3-sulfamoylpropyl)acetamide]	≥ 130	≤ 100

Reference: US20230061736A1, “GPR119 AGONISTS” (Kallyope, Inc., priority 2019, published 2023)
